In patent US20090221624A1, “4-AMINOQUINOLINE COMPOUNDS FOR TREATING VIRUS-RELATED CONDITIONS” (priority 2005, published 2009):
Like-named read-outs stand apart in the source and are kept apart here.

Experiments:
[1] = system: HCV replicon (Clone A cells, Huh7, subgenomic hepatits C virus RNA); assay: HCV Neo screening assay (HCV replicon, NPTII ELISA); format: cell-based, hepatitis C virus; details: for inhibition at 25 µM / EC50: Hepatitis C virus, Huh-7; for inhibition at 25 µM: primary screening, 25 μM final concentration, 24 hours, percent inhibition of viral replication, read-out: HCV Inh; for EC50: Secondary Data, HCV; for HCV TI: therapeutic index CC50/EC50, HCV
RSV minigenome = assay: RSV minigenome-dependent β-galactosidase expression assay (RSV β-Gal); format: cell-based, respiratory syncytial virus; details: for EC50 / inhibition at 25 µM: human respiratory syncytial virus; for EC50: RSV; for inhibition at 25 µM: primary screening, 25 μM final concentration, 24 hours, percent inhibition of viral replication, read-out: RSV Inh; for RSV TI: therapeutic index CC50/EC50, RSV
WNV (WN-hRuPac cells) = assay: WNV antiviral activity, WN-hRuPac cells, Renilla luciferase; format: cell-based, West Nile virus; details: for EC50 / inhibition at 25 µM: West Nile virus; for EC50: read-out: WNV EC50; for inhibition at 25 µM: primary screening, 25 μM final concentration, 24 hours, percent inhibition of viral replication, read-out: WNV Inh; for WNV TI: therapeutic index CC50/EC50, WNV
YFV (YF-hRuPac cells) = assay: microbe, parasite or virus in culture; format: cell-based, yellow fever virus; details: for inhibition at 25 µM / EC50: Yellow fever virus; for inhibition at 25 µM: 24 h, read-out: YFV Inh; for EC50: read-out: YFV EC50
DNG (D2-hRuPac cells) = assay: DNG antiviral activity, D2-hRuPac cells, Renilla luciferase; format: cell-based, Dengue fever virus; details: Dengue virus, secondary screening
EBOV minigenome = assay: microbe, parasite or virus in culture; format: cell-based, Ebola virus; details: Zaire ebolavirus; for inhibition at 25 µM: 24 h, read-out: EBOV Inh; for EC50: read-out: EBOV EC50
SINV (SR19-F-luc cells) = assay: SINV antiviral activity, SR19-F-luc cells, Firefly luciferase; format: cell-based; details: Sindbis virus; for inhibition at 25 µM: primary screening, 25 μM final concentration, 24 hours, percent inhibition of viral replication, read-out: SINV Inh; for EC50: secondary screening, SR19-F-luc cells
[2] = Secondary Data, read-out: RSV EC50

SMILES	inhibition at 25 µM [1]	inhibition at 25 µM (RSV minigenome)	RSV TI (RSV minigenome)	inhibition at 25 µM (WNV (WN-hRuPac cells))	WNV TI (WNV (WN-hRuPac cells))	YFV TI (YFV (YF-hRuPac cells))	inhibition at 25 µM (YFV (YF-hRuPac cells))	EC50 (YFV (YF-hRuPac cells))	EC50 (DNG (D2-hRuPac cells))	inhibition at 25 µM (EBOV minigenome)	EC50 (EBOV minigenome)	inhibition at 25 µM (SINV (SR19-F-luc cells))	EC50 (SINV (SR19-F-luc cells))	CC50 (in vitro; DNG CC50)	CC50 (in vitro; EBOV CC50)	CC50 (in vitro; HCV CC50)	CC50 (in vitro; RSV CC50)	CC50 (in vitro; SINV CC50)	CC50 (in vitro; WNV CC50)	CC50 (in vitro; YFV CC50)	also measured
Cc1ccc2nc(C)cc(Nc3ccccc3)c2c1 [Compound 3]	32.1%	86.3%	4.63	38.7%	1.75	2.84	41.7%	18.4 µM	34.2 µM	-44.2%	65.2 µM	76.1%	1.29 µM	52.3 µM	52.3 µM	32.3 µM	52.3 µM	52.3 µM	52.3 µM	52.3 µM	EC50 (RSV minigenome; read-out: RSV EC50, Secondary Data): 11.3 µM; EC50 (WNV (WN-hRuPac cells)): 29.9 µM
CCOC(=O)c1ccc(Nc2cc(C)nc3c2ccc2ccccc23)cc1 [Compound 4]	105%	47.7%	1.97	28.4%	0.97	17.1	81.7%	4.26 µM	32.7 µM	6.57%	59.3 µM	-22.2%	≥ 75 µM	72.9 µM	72.9 µM	32.5 µM	72.9 µM	72.9 µM	72.9 µM	72.9 µM	EC50 [1]: 15.6 µM; HCV TI [1]: 2.08; EC50 (RSV minigenome; [2]): 37 µM; EC50 (WNV (WN-hRuPac cells); Secondary Data, WNV): ≥ 75 µM
c1cncc(CNc2c3ccccc3nc3ccccc23)c1 [Compound 5]	211%	98.5%	10.2	89.3%	3.99	2.57	84.7%	11.1 µM	3.64 µM	86%	15.3 µM	29.6%	7.02 µM	28.6 µM	28.6 µM	9.67 µM	28.6 µM	28.6 µM	28.6 µM	28.6 µM	EC50 [1]: 1.76 µM; HCV TI [1]: 5.49; EC50 (RSV minigenome; [2]): 2.8 µM; EC50 (WNV (WN-hRuPac cells); Secondary Data, WNV): 7.15 µM
COc1ccc(Nc2cc(C)nc3c2ccc2ccccc23)cc1 [Compound 7]	104%	76.9%	7.5	34.3%			64.1%	≥ 75 µM	17 µM	85.3%	10.8 µM	7.58%	≥ 75 µM	≥ 75 µM	≥ 75 µM	14 µM	≥ 75 µM	≥ 75 µM	≥ 75 µM	≥ 75 µM	EC50 [1]: 5.87 µM; HCV TI [1]: 2.39; EC50 (RSV minigenome; [2]): 10 µM; EC50 (WNV (WN-hRuPac cells); Secondary Data, WNV): ≥ 75 µM
COC(=O)c1ccc(Nc2c3c(nc4ccccc24)CCC3)cc1 [Compound 8]	98.9%	75.5%	7.73	49%	1.27	2.91	66.8%	25.8 µM	61.5 µM	4.74%	54.5 µM	34.9%	24.2 µM	≥ 75 µM	≥ 75 µM	71.6 µM	≥ 75 µM	≥ 75 µM	≥ 75 µM	≥ 75 µM	EC50 [1]: 0.13 µM; HCV TI [1]: 550.77; EC50 (RSV minigenome; [2]): 9.7 µM; EC50 (WNV (WN-hRuPac cells); Secondary Data, WNV): 59.1 µM
Cc1ccc(Nc2cc(C)nc3c2ccc2ccccc23)cc1 [Compound 9]	98.3%	88.2%	17.8	33.4%	2.38	13.51	76.2%	5.4 µM	≥ 75 µM	-17.1%	61.5 µM	48.2%	≥ 75 µM	73 µM	73 µM	9.83 µM	73 µM	73 µM	73 µM	73 µM	EC50 [1]: 1.77 µM; HCV TI [1]: 5.55; EC50 (RSV minigenome; [2]): 4.1 µM; EC50 (WNV (WN-hRuPac cells); Secondary Data, WNV): 30.6 µM
c1coc(CNc2c3c(nc4ccccc24)CCC3)c1 [Compound 10]	34.6%	99.6%	23.29	81.2%	5.97	4.06	86.2%	14.4 µM	24.7 µM	38.1%	43.2 µM	15.9%	69.9 µM	58.5 µM	58.5 µM	47.6 µM	58.5 µM	58.5 µM	58.5 µM	58.5 µM	EC50 (RSV minigenome; [2]): 2.51 µM; EC50 (WNV (WN-hRuPac cells); Secondary Data, WNV): 9.79 µM
C=CCNc1c2c(nc3ccccc13)CCC2 [Compound 12]	10.3%	31%	11.17	47.5%	3.68	1.17	31.3%	61.2 µM	69.2 µM	49.8%	45.4 µM	69.4%	6.89 µM	71.7 µM	71.7 µM	71 µM	71.7 µM	71.7 µM	71.7 µM	71.7 µM	EC50 (RSV minigenome; [2]): 6.42 µM; EC50 (WNV (WN-hRuPac cells); Secondary Data, WNV): 19.5 µM
CCOC(=O)c1ccc2ncc(C(=O)OCC)c(NCc3ccco3)c2c1 [Compound 13]	27.4%	92.1%	12.07	98%	7.4	3.98	89.5%	8.88 µM	10.5 µM	59%	6.03 µM	-12.1%	44.5 µM	35.4 µM	35.4 µM	≥ 75 µM	35.4 µM	35.4 µM	35.4 µM	35.4 µM	EC50 (RSV minigenome; [2]): 2.93 µM; EC50 (WNV (WN-hRuPac cells); Secondary Data, WNV): 4.78 µM
COC(=O)c1ccc(Nc2cc(C)nc3cc(Cl)ccc23)cc1 [Compound 14]	81.2%	48.4%	1.46	51.6%	0.72	5.82	54.6%	9.23 µM	54.3 µM	-19.5%	65.6 µM	56.7%	17.6 µM	53.7 µM	53.7 µM	≥ 75 µM	53.7 µM	53.7 µM	53.7 µM	53.7 µM	EC50 [1]: 1.3 µM; HCV TI [1]: 57.69; EC50 (RSV minigenome; [2]): 36.9 µM; EC50 (WNV (WN-hRuPac cells); Secondary Data, WNV): ≥ 75 µM
